Tests used:
laying hens [1] = assay: Henhouse test on laying hens, calcium L-pidolate in feedstuff; eggs examined by candling
Excerpt: The downgraded percentage corresponds to the percentage of eggs with cracked shells, which shell having been carefully examined by candling so as to detect any rupture of the shell (cracks, holes, etc.). The percentage of uncracked egg shells was computed from eggs on which no shell rupture was observed by candling.

laying hens [2] = assay: Other tests on shell quality of older hens supplied with calcium L-pidolate; format: in vivo; details: between the 60th week and the 72nd week
Excerpt: The decrease in quality of the shell increases between the 55th and 65th week. The hens are generally sacrificed at 68 to 70 weeks. […] As a result, the duration of exploitation of the hen can thus be prolonged so as to improve the profit of raising by reducing the hen/egg cost.

## calcium L-pidolate
Laying hens [1]; after stopping treatment
  persistence of improvements in egg color (pure white eggs or chalky appearance) after stopping treatment: persisted eight to ten days after stopping treatment
Laying hens [1]; day after the day of administration in feedstuff, 19,300 hens, candling
  percentage of downgraded eggs (eggs with cracked shells): decrease of the percentage of downgraded eggs
Laying hens [1]; day after the end of treatment
  effect on quality, in particular mechanical strength of the egg shells, after end of treatment: decreased and disappeared completely
Laying hens [1]; tests of FIG. 1, winter, October-November
  percentage of downgraded eggs over the test period: maintaining the percentage of downgraded eggs at a substantially constant value
Laying hens [2]
  decrease in quality of the shell: can be stabilized
